Data from ChEMBL document CHEMBL1201862, “PubChem BioAssay data set” (2004).
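Interpolation was linear, between the two tested concentrations surrounding the appropriate level; five concentrations were tested over 48 hours in 96-well plates. GI50 = concentration required for 50% inhibition of growth.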 Active and inactive are the calls of the source. Cut-off read from the data, not from the text of the source: active = GI50 up to about 1.1 µM and inactive = higher.

What was measured:
Assay in all cases: inhibition of tumour cell growth, NCI panel, 48 h
A549 = test system: A549
DU-145 = test system: DU-145
EKVX = test system: EKVX
HCT-116 = test system: HCT-116
HL-60 = test system: HL-60
HT-29 = test system: HT-29
K562 = test system: K562
MCF7 = test system: MCF7
NCI-H226 = test system: NCI-H226
NCI-H460 = test system: NCI-H460
OVCAR-4 = test system: OVCAR-4
RPMI-8226 = test system: RPMI-8226
SF-539 = test system: SF-539
SN12C = test system: SN12C
SNB-75 = test system: SNB-75
SW-620 = test system: SW-620
HOP-92 = test system: HOP-92
LOX IMVI = test system: LOX IMVI
NCI-H522 = test system: NCI-H522
RXF 393 = test system: RXF 393

Structure (SMILES)	GI50 (A549)	GI50 (DU-145)	GI50 (EKVX)	GI50 (HCT-116)	GI50 (HL-60)	GI50 (HT-29)	GI50 (K562)	GI50 (MCF7)	GI50 (NCI-H226)	GI50 (NCI-H460)	GI50 (OVCAR-4)	GI50 (RPMI-8226)	GI50 (SF-539)	GI50 (SN12C)	GI50 (SNB-75)	GI50 (SW-620)	GI50 (HOP-92)	GI50 (LOX IMVI)	GI50 (NCI-H522)	GI50 (RXF 393)
O=C(/C=C/c1cccs1)c1ccc(Cl)s1	42.9 µM (inactive)	56 µM (inactive)	> 100 µM (inactive)	18.2 µM (inactive)	22.1 µM (inactive)	> 10 µM (inactive)	31.3 µM (inactive)	17.2 µM (inactive)	28.7 µM (inactive)	72.8 µM (inactive)	48.5 µM (inactive)	17.5 µM (inactive)	28.6 µM (inactive)	18.6 µM (inactive)	56 µM (inactive)	23.3 µM (inactive)				
S=c1sc2c(Cl)nc(Cl)nc2n1-c1ccccc1	> 100 µM (inactive)		61 µM (inactive)	16.4 µM (inactive)	23.5 µM (inactive)	33 µM (inactive)	29 µM (inactive)		61.2 µM (inactive)	> 100 µM (inactive)	41.3 µM (inactive)	> 100 µM (inactive)	> 100 µM (inactive)	46.2 µM (inactive)	82.6 µM (inactive)	27.2 µM (inactive)	> 100 µM (inactive)	34.8 µM (inactive)	11.5 µM (inactive)	21.6 µM (inactive)
CCCCCCCCCCCCCCCC(=O)OCC1OC(n2cc(F)c(=O)[nH]c2=O)C(NC(=O)N(CCCl)N=O)C(O)C1O (configuration not stated)	0.767 µM (active)		2.58 µM (inactive)	1.22 µM (inactive)	0.428 µM (active)	4.68 µM (inactive)	1.76 µM (inactive)		10.4 µM (inactive)	0.152 µM (active)	7.96 µM (inactive)	3.06 µM (inactive)	0.122 µM (active)	2.07 µM (inactive)	0.228 µM (active)	1.31 µM (inactive)	3.65 µM (inactive)	0.157 µM (active)	5.15 µM (inactive)	2.38 µM (inactive)
CCCCC(C(=O)CCC(=O)Nc1ccc(Cl)c(Cl)c1)C(=O)C(C)C (configuration not stated)	> 100 µM (inactive)		> 100 µM (inactive)	> 100 µM (inactive)	> 100 µM (inactive)	> 100 µM (inactive)	40.9 µM (inactive)		> 100 µM (inactive)	> 100 µM (inactive)	> 100 µM (inactive)	> 100 µM (inactive)	> 100 µM (inactive)	> 100 µM (inactive)	21.6 µM (inactive)	> 100 µM (inactive)	> 100 µM (inactive)	63.2 µM (inactive)	> 100 µM (inactive)	> 100 µM (inactive)
O=C(NC12CC3CC(CC(C3)C1)C2)C(=O)c1c[nH]c2ccc([N+](=O)[O-])cc12	11.3 µM (inactive)		97.3 µM (inactive)	18.7 µM (inactive)	> 35.6 µM (inactive)	> 44.4 µM (inactive)	49 µM (inactive)		23.8 µM (inactive)	13.5 µM (inactive)	7.59 µM (inactive)	> 83 µM (inactive)	46.1 µM (inactive)	31 µM (inactive)	14.2 µM (inactive)	31.7 µM (inactive)	30.3 µM (inactive)	15.3 µM (inactive)	25.2 µM (inactive)	21.1 µM (inactive)
Nc1ncc(CN2CCCC2)c(-c2ccccc2O)n1	> 750 µM (inactive)		> 100 µM (inactive)	> 750 µM (inactive)	4.31 µM (inactive)	> 750 µM (inactive)	4.51 µM (inactive)	> 100 µM (inactive)	> 750 µM (inactive)	> 750 µM (inactive)	> 750 µM (inactive)	> 750 µM (inactive)	> 750 µM (inactive)	> 750 µM (inactive)	> 750 µM (inactive)	> 750 µM (inactive)	> 750 µM (inactive)	38.4 µM (inactive)	> 750 µM (inactive)	> 750 µM (inactive)
